From US6962912B2, “Substituted pyrazolo[4,3-e]diazepines, pharmaceutical compositions containing them, use as medicinal products and processes for preparing them” (Warner-Lambert LLC, priority 2000, dated 2005)

Experiments:
production of TNFα = assay: in vivo TNFα model in Wistar rats (LPS-induced); details: oral administration 30 min before i.p. LPS; plasma 90 min after LPS; male Wistar rats
Description: TNFα is a cytokine which plays a central role in the mechanisms of inflammation. Its production can be induced by an injection of lipopolysaccharide (LPS). It has been shown that the increase in intracellular cAMP, produced in particular by PDE4 inhibitors, decreases the production of TNFα in in vitro and in vivo models. It is thus a matter here of quantifying in vivo the anti-inflammatory potential of the compounds of the invention, administered orally (p.o.) by measuring the inhibition of the production of TNFα in the plasma of rats, these rats having received an intraperitoneal (i.p.) injection of lipopolysaccharide (LPS). The treatment with the compounds of the invention or the vehicle are [sic] administered orally to male Wistar rats, 30 min before the injection of LPS. The rats are sacrificed 90 min after the stimulation with LPS, the blood is collected onto EDTA and the TNFα concentration is measured in each plasma sample. […] References • Chen, Y. L., Le Vraux, V., Giroud, J. P. and Chauvelot-Moachon L. (1994). Anti-tumor necrosis factor properties of non-peptide drugs in acute-phase responses. […] Int. J. Immunopharmacol., 16 (10), 805-816. Model of Eosinophilia in Rats

PDE4 = assay: Inhibition of PDE4 (cytosolic enzyme preparation from U937 line), compared with rolipram; type: biochemical, human; details: PDE4 enzyme preparation obtained from the U937 line

| SMILES | inhibition of the production of TNFα in the plasma of rats (production of TNFα) | melting point | IC50 (PDE4) |
| --- | --- | --- | --- |
| CCn1nc(C)c2c1C(=O)NCC(c1ccc(O)cc1)=N2 [Example 28, 1-Ethyl-5-(4-hydroxyphenyl)-3-methyl-6,7-dihydro-1H-pyrazolo[4,3-e][1,4]diazepin-8-one] | excellent activity | 250 °C | 90 nM |
| CCn1nc(C)c2c1C(=S)NCC(c1ccccc1)=N2 [Example 17, 1-Ethyl-3-methyl-5-phenyl-6,7-dihydro-1H-pyrazolo[4,3-e][1,4]diazepin-8-thione] | excellent activity | 203.5 °C | 5.9 nM |
| CCn1nc(C(C)(C)C)c2c1C(=O)NCC(c1ccc(N)cc1)=N2 [Example 26, 5-(4-Aminophenyl)-3-tert-butyl-1-ethyl-6,7-dihydro-1H-pyrazolo[4,3-e][1,4]diazepin-8-one] | excellent activity | 189 °C | 5.6 nM |
| CCn1nc(C)c2c1C(=O)NCC(c1cccc(N)c1)=N2 [Example 24, 5-(3-Aminophenyl)-1-ethyl-3-methyl-6,7-dihydro-1H-pyrazolo[4,3-e][1,4]diazepin-8-one] | excellent activity | 80 °C | 78 nM |
